Experiments:
[1] = system: X. axonopodis pv. citrumelo; test: Dose-response study, 1 minute exposure to peracetic acid dilutions; format: cell-based
Description: Four strains of X. axonopodis pv. citrumelo were obtained from the Florida Department of Citrus and propagated in Nutrient Broth (Difco) at 22° C. with agitation for 48 to 72 hours. Cells were pelleted at 5,000 rpm/16 minutes, washed with Butterfield's Phosphate (pH 7.2) and resuspended in approximately 10% of the initial culture volume with Butterfield's Phosphate in order to concentrate the cells 10×. This final concentrate was used as the inoculum for the dose-response study. FMC VigorOx Liquid Sanitizer and Disinfectant (5% peracetic acid) and VigorOx SP-15 Antimicrobial Agent (15% peracetic acid) were diluted to final peracetic acid concentrations of 0 ppm (control), 5 ppm, 10 ppm, 20 ppm, 30 ppm, 40 ppm, 50 ppm, 60 ppm, 70 ppm, and 80 ppm with distilled water. Each variable was dispensed in 9.9 ml aliquots in sterile test tubes.
A 0.1 ml aliquot of the inoculum was added to each peracetic acid variable, shaken, and allowed to remain exposed to the solution for 1 minute. […]
Data summaries of trials performed on each product are expressed in the following tables. […] The initial inoculum was determined to contain 2.9×10^11 cfu/ml X. axonopodis, and the initial level of X. axonopodis exposed to each concentration of peracetic acid was determined to be 2.9×10^9 cfu/ml.

[2] = system: Xanthomonas campestris pv. vesicatoria; conditions: 200 μg/ml; cited from earlier work

## CC(=O)OO [peroxyacetic acid]
[1]; 30 parts per million peroxyacetic acid, and above
  reduction of X. axonopodis: > 99.9%
[1]; greater than 10 but less than 20 parts per million peroxyacetic acid
  significant reduction of X. axonopodis: > 1 log10 cfu/ml
[2]
  level of eradication: acceptable level of eradication comparable to approved chlorine treatments
